Data on 4 compounds can be found in PMC12186263, “Molecular Basis for Peptide Nitration by a Novel Cytochrome P450 Enzyme in RiPP Biosynthesis” (ACS Catalysis, 2025).

Square brackets hold non-standard residues; d marks the D form. Peptide text beside a SMILES is read from it. Nle = CCCC[C@H](N)C(=O)O

One assay deals with T1, TxtE (Streptomyces scabiei, UniProt C9ZDC6).
T1 sequence (C9ZDC6 1-406): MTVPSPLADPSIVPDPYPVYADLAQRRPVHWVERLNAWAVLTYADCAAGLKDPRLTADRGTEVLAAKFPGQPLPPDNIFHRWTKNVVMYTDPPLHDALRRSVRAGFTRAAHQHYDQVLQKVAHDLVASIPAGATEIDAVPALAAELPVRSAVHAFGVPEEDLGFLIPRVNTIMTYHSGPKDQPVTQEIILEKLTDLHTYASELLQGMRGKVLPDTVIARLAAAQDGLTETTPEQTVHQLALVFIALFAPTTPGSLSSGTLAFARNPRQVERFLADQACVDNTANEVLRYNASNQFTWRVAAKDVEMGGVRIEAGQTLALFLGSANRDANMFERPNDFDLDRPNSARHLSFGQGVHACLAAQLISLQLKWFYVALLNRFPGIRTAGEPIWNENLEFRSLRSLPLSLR
Conditions: Trp-bound TxtE; reported, ref number not given; cited from earlier work.

Another assay deals with ferrous RufO. Briefly: Stopped-flow transient kinetics of O2 and •NO binding to ferrous RufO. The conditions noted are these: for association rate constant k1: 3.3 μM ferrous RufO; for association rate constant k1 / dissociation rate constant k2 (y-intercept): pH 8.0, linear fit. The method, then: 5 Transient kinetics of ferrous RufO binding to O2 and ^•NO. Spectral changes following the rapid mixing of 3.3 μM ferrous RufO bound to MRYLH with (A) 18 μM O2 and (C) 70 μM ^•NO over 0.2 s. The black-to-red spectral transitions represent the formation of (A) a ferric-superoxo intermediate and (C) a ferrous-nitrosyl complex. Insets show the time-dependent absorbance changes at 438 nm (the most pronounced shift), fitted using single exponential equations to determine rate constants (red trace). Dependence of rate constant as a function of gas concentration on (B) O2 and (D) ^•NO binding to ferrous RufO alone (blue) and peptide-bound RufO (red). Second-order rate constants were determined through linear fitting. TEXT PRINTED IN THE PICTURE: (A) + O2: kobs = 74.3 s^-1 | (B) RufO alone: k1 = 3.55 μM^-1 s^-1 | (B) peptide-bound: k1 = 3.83 μM^-1 s^-1 | (C) + •NO: kobs = 107.4 s^-1 | (D) RufO alone: k1 = 4.12 μM^-1 s^-1 | (D) peptide-bound: k1 = 2.35 μM^-1 s^-1
Stopped-flow spectroscopic data were collected using an Applied Photophysics SX20 stopped-flow system equipped with a photodiode array detector. The system was maintained in an anaerobic chamber (O2 < 1 ppm) and all sample preparation was done anaerobically. Measurements were performed at 4 °C. All samples were prepared in a buffer containing 50 mM Tris-HCl and 100 mM NaCl, pH 8.0. RufO was prereduced with a minimal amount of sodium dithionite. The final mixed concentrations of RufO and MRYLH (where applicable) were 3.3 and 24 μM, respectively. Solutions of varying O2 concentrations were prepared by diluting air-saturated buffer with anaerobic buffer. The concentrations of O2 in the air-saturated buffer were measured with an Oxygraph+ oxygen electrode (Hansatech). To generate ^•NO-containing solutions, 0.5 mM DEA NONOate (≥98%, Cayman Chemical) was incubated in anaerobic buffer for 4 h to ensure complete ^•NO release. The ^•NO concentrations were quantified based on a hemoglobin assay, and further dilutions were made with anaerobic buffer immediately prior to mixing. Experimental data were analyzed by the ProK software package from Applied Photophysics. The second-order rate constants were obtained from linear fitting, with the resulting equations: y = 3.55x + 54.4 for the mixing of RufO with O2, y = 3.83x + 6.5 for the ES complex with O2, y = 4.12x −158.0 for RufO with ^•NO, and y = 2.35x – 58.9 for the ES complex with ^•NO.
Figure S9. Transient kinetics of ferrous RufO alone binding to O2 and •NO Spectral changes following the rapid mixing of 3.3 μM ferrous RufO with (A) 18 μM O 2 and […] superoxo intermediate and (B) a ferrous-nitrosyl complex. Insets show the time-dependent absorbance changes at 438 nm (the most pronounced shift), fitted using first-order exponential equations to determine rate constants (red trace).
(1 picture or pasted object on this page, not shown here)

Assay [1] concerns the target T2, RufO (Streptomyces atratus, UniProt A0A224AU14).
T2 construct: made in house
T2 sequence (A0A224AU14 1-394): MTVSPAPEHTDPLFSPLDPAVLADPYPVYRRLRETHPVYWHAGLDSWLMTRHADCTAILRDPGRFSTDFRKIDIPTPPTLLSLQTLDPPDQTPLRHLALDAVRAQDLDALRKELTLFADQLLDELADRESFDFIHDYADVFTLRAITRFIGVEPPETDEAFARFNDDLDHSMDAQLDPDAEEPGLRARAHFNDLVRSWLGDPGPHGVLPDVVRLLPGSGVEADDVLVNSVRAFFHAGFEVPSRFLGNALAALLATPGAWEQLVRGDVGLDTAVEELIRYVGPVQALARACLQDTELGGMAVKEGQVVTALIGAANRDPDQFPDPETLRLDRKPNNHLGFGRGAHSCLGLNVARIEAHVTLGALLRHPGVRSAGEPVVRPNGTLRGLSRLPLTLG
Briefly: LC-MS of single-turnover RufO reaction with sequential O2 and •NO addition. It is filed as biochemical. Conditions: 100 μM pre-reduced RufO, 150 μM MRYLH, 150 μM O2 30 s then 150 μM •NO 30 s, 50 mM ammonium acetate pH 7.5.

Assay [2] concerns the target T2, RufO. The conditions noted are these: recent report, ref number not given; cited from earlier work. From the text:
The integration of spectroscopic and structural characterization allows us to elucidate the molecular mechanism of substrate recognition and nitration activity in RufO. Our findings provide important insights into the catalytic process, enabling us to propose a mechanistic model for RufO-mediated peptide nitration (Figure S13). In its resting state, RufO adopts a six-coordinate, low-spin heme configuration with a water molecule as the distal ligand. While its heme environment is spectroscopically similar to that of typical CYPs, the flexibility of the B/C loop and the F and G helices contribut ...

In assay [3] the target is T2, RufO. Put plainly: RufO nitration activity assay (HPLC). In kind it is biochemical. The conditions noted are these: 20 μM RufO, 1 mM peptide, SpFdX/SpFdR, pH 8.0, 25 °C, 30 min; highest rate set as 100%; triplicate. The procedure:
Each assay was performed in triplicate and contained 20 μM CYP enzyme, 80 μM ferredoxin, 40 μM reductase, 1 mM substrate, 1 mM NADH/NADPH, 1 mM DEA NONOate (≥98%, Cayman Chemical), and 132 μL O2-saturated buffer (50 mM Tris, 100 mM NaCl at pH 8.0, bubbled for 30 min) for a final reaction volume of 200 μL. Reactions with CPR in place of the ferredoxin/reductase system contained 40 μM CPR. Reactions were incubated at 25 °C with shaking at 300 rpm for 30 min, then filtered using a 10 kDa cutoff centrifugal filter (Millipore) and analyzed by HPLC. Filtrate was analyzed on an InertSustain C18 column (5 μm particle size, 4.6 mm × 100 mm, GL Sciences Inc.) on a Thermo Fisher Scientific Ultimate-3000SD HPLC rapid separation system equipped with a photodiode array detector. The flow rate was set at 1 mL/min. For RufO assays, solvent A was water and solvent B was 90% acetonitrile (ACN) in water with 0.1% trifluoroacetic acid (TFA). A gradient of 0–70% solvent B was applied over 15 min. For collection of peptide product peaks for mass spectrometry analysis, TFA in solvent B was replaced with formic acid (FA). The method for TxtE assays used water with 0.1% FA as solvent A and ACN with 0.1% FA as solvent B. A gradient of 0–20% solvent B was applied over 10 min, followed by a 5 min hold at 20% solvent B. All presented traces were monitored at an absorbance wavelength of 280 nm. […]

The target in assay [4] is T2, RufO. Briefly: X-band cw EPR of RufO with peptide. In kind it is binding. Conditions: 100 μM RufO, 2 mM peptide, 10 K; double-integrated intensities. The procedure: 3 Spectroscopic characterization of the RufO heme center with and without peptide substrates. (A) X-band continuous wave EPR spectra of RufO (black), RufO with 2 mM MRYLH (red), and RufO with 2 mM Nle-RYLH (blue), measured at 10 K and 1 mW microwave power. The minor species marked by asterisks likely arise from conformational heterogeneity of the heme center or a freezing artifact. (B) rR spectra of RufO (top), RufO with 2 mM MRYLH (middle), and RufO with 2 mM Nle-RYLH (bottom). The spectra were collected using a 405 nm excitation laser at 5 mW. (C) rR spectra of CO adducts of ferrous RufO (top) and ferrous RufO with 2 mM Nle-RYLH (bottom). Spectra were collected using a 442 nm excitation line at 1 mW. (D) Backbonding correlations between v(Fe–C) and v(C–O) stretching frequencies for various CYPs in the absence (squares) and presence (circles) of ligands. […]
EPR samples were prepared by mixing 100 μM RufO in the same buffer with 5% glycerol and either 2 mM MRYLH or Nle-RYLH, followed by flash-freezing in 4 mm quartz EPR tubes. […] Each sample was measured at 9.35 GHz microwave frequency at 10 K using 1 mW microwave power. All spectra were recorded with four averaged scans using an ER4119HS resonator at a modulation frequency of 100 kHz and a modulation amplitude of 0.4 mT. The conversion rate of the low-spin species was determined by comparing the double-integrated intensities of the signals. […]

Assay [5] addresses T2, RufO. Put plainly: Isothermal titration calorimetry, peptide into RufO. It is filed as binding. Conditions: ITC, 20 °C, 190 μM RufO, 50 mM Tris-HCl, 100 mM NaCl pH 7.5, one set of sites, control subtracted. (Isothermal titration calorimetry measures the heat released or taken up as one component is titrated into another.)
Method: ITC experiments were conducted at 20 °C using a MicroCal PEAQ-ITC instrument (Malvern Panalytical). RufO was prepared in a buffer containing 50 mM Tris-HCl and 100 mM NaCl at pH 7.5. The reference cell was filled with water. Each experiment involved 190 μM RufO in the sample cell, titrated with either 2.5 mM MRYLH or 2.8 mM Nle-RYLH in the syringe. Control experiments replaced the protein in the cell with buffer. The titration protocol included an initial 0.4 μL injection (excluded from analysis), followed by 19 injections of 2 μL at 2.5 min intervals. The cell was continuously stirred at 750 rpm. Data analysis was conducted using MicroCal PEAQ-ITC Analysis Software, with heats of dilution determined from the plateau region of the thermograms and subtracted from each integrated peak. All titrations are baseline corrected. The final integrated enthalpic changes were obtained by subtracting the controls from the protein-peptide titrations and fitted to a “one set of sites” binding model.
The target in assay [6] is T2, RufO. The conditions noted are these: spectroscopic and structural analyses; ref number not given; cited from earlier work. The text has this:
Recent studies on a nitrating CYP have showcased collective efforts to uncover a novel enzymatic function in RiPP biosynthesis. Nitration is a biologically significant transformation that modifies the function, stability, and reactivity of proteins and other biomolecules. − While most biological nitration processes are known to proceed through less specific reactions involving peroxynitrite and other nitrative reactive species, , biocatalytic nitration is rare and underexplored. The first example was reported for TxtE in thaxtomin biosynthesis, which catalyzes the direct nitration of L-trypto ...

[7] abbreviates: peptide-bound ferrous RufO + O2, 4 °C, pH 8.0.

Regarding `O=O` [O2], on TxtE, the “k1 of O2 binding” value is 4.43 μM^–1 s^–1. The kobs with ferrous RufO (MRYLH-bound ferrous RufO 3.3 μM, 18 μM O2, 438 nm, single exponential, 4 °C) stood at 74.3 s⁻¹. The “association rate constant k1” value in the assay with ferrous RufO (MRYLH-bound, 24 μM MRYLH, 4 °C) was determined as 3.83 μM^–1 s^–1. In the assay with ferrous RufO (RufO alone, 4 °C), the “association rate constant k1” value is reported as 3.55 μM^–1 s^–1 and the “dissociation rate constant k2 (y-intercept)” value stood at 54.4 s^–1. Moreover, the “O2 binding faster than •NO (times)” value in the assay on ferrous RufO (in the presence of the peptide, ratio of k1) was found to be 1.6 times. Also, in the assay with ferrous RufO (peptide-bound RufO, 4 °C), the “dissociation rate constant k2 (y-intercept)” value was determined as 6.5 s^–1. Also, in the assay with ferrous RufO (setting [7]), the “ferric-superoxo intermediate stable for up to” value is “up to 100 s” and the “time of peak of ferric-superoxo intermediate” value is reported as “approximately 0.05 s”. The “product yield, O2-first vs reverse order” value on RufO [1] is recorded as “approximately double the product yield”.
Consider MRFLH, for which the “nitration by RufO, in words” value on RufO [2] was “RufO cannot nitrate”.
Broadly, the Kd is a measure of binding affinity in units of concentration. Low readings indicate higher affinity, high ones lower affinity. As for `CCCC[C@H](N)C(=O)N[C@@H](CCCNC(=N)N)C(=O)N[C@@H](Cc1ccc(O)cc1)C(=O)N[C@@H](CC(C)C)C(=O)N[C@@H](Cc1c[nH]cn1)C(=O)O` [Nle-RYLH] (H-[Nle]RYLH-OH), the “conversion rate (normalized)” value on RufO [3] worked out at 100%. Also, the “conversion of original low-spin species to new low-spin species” value on RufO [4] stood at 84%. The same compound came in with a Kd on RufO [5] of 1600 nM.
In the case of `N[C@@H](Cc1ccc(O)cc1)C(=O)O` [Tyr, L-tyrosine], on RufO [6], the “binding to RufO, in words” value was “unable to bind”.
